Measurements reported in patent US6825230B2, “Spiro and dispiro 1,2,4-trixolane antimalarials” (Medicines for Malaria Venture MMV, priority 2002, dated 2004).
In brackets after ≈: the same amount, converted by molar mass.

What was measured:
[1] = test system: chloroquine-resistant K1 strain of P. falciparum; assay: In vitro antimalarial semiautomated microdilution assay ([3H]-hypoxanthine incorporation), K1 strain; assay type: cell-based, Plasmodium falciparum; settings: Plasmodium falciparum; chloroquine-resistant K1 strain, 72 h incubation; read-out: IC50 (ng/ml) K1
Summary of the method: (§1)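 Asynchronous stock-culture parasites (intraerythrocytic forms), serial compound dilutions; readout [3H]-hypoxanthine uptake; IC50 via Logit regression.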

[2] = test system: chloroquine-sensitive NF54 strain of P. falciparum; assay: In vitro antimalarial semiautomated microdilution assay ([3H]-hypoxanthine incorporation), NF54 strain; assay type: cell-based, Plasmodium falciparum; settings: Plasmodium falciparum; chloroquine-sensitive NF54 strain, 72 h incubation; read-out: IC50 (ng/ml) NF54
Summary of the method: as §1

[3] = test system: ANKA strain of P. berghei; assay: Single dose STI in vivo screen in infected mice; set-up: species or system Plasmodium berghei; settings: 10 mg/kg
[4] = test system: Schistosoma mansoni adult worms (49-day-old); assay: Effect on adult schistosomes (49-day-old) in infected mice; assay type: in vivo
Experimental: Mice were infected with 100 Schistosoma mansoni cercariae on day 49 post-treatment. Each group was treated per os with OZ compounds at single doses of 200, 400, and 600 mg/kg. Untreated mice served as the control. All groups were killed 4 weeks after treatment and the liver and intestine were removed and separated. The liver and intestine were compressed and alive male and female worms could be seen and counted.

[5] = test system: ANKA strain of Plasmodium berghei; assay: Single dose ED50/ED90/ED99 determination in infected mice; assay type: in vivo
Summary of the method: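 Moro SPF or NMRI mice (three per group) infected with P. berghei ANKA were dosed once on day 1 post-infection in SSV (0.5% CMC, 0.5% benzyl alcohol, 0.4% Tween 80, 0.9% NaCl). Parasitemia reduction was scored on day 3; ED values (mg/kg) came from nonlinear fitting.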

[6] = Pharmacokinetics in rats (IV and oral dosing); settings: rat, in vivo
Text: (§2) Artesunate is listed as a reference compound.

[7] = Pharmacokinetics in dogs (IV and oral dosing); settings: in vivo, dog; for bioavailability: some values marked (V), not defined
Text: as §2

P. berghei ANKA strain [8] = assay: Divided 3x10 mg/kg vs single 1x30 mg/kg po dose in infected mice; assay type: in vivo, Plasmodium berghei
P. berghei ANKA strain [9] = assay: Divided 3x3 mg/kg and 3x1 mg/kg po doses in infected mice; assay type: in vivo, Plasmodium berghei
Summary of the method: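 Male NMRI mice were infected i.v. with 2×10^7 P. berghei-parasitized erythrocytes on day 0, then dosed orally in SSV vehicle on days 1, 2 and 3 post-infection.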

P. berghei ANKA strain [10] = assay: Prophylactic activity, single 100 mg/kg po at various times before infection; assay type: in vivo, Plasmodium berghei

SMILES: NC[C@H]1CC[C@]2(CC1)OOC1(O2)C2CC3CC(C2)CC1C3 (stereo partly drawn) [OZ209]
- IC50 [1]: 0.21 ng/mL (≈ 0.716 nM)
- IC50 [2]: 0.32 ng/mL (≈ 1.09 nM)
- Survival (days) 10 mg/kg po ([3]; single 10 mg/kg po in 3% ethanol and 7% Tween 80, untreated 6-7 days): 9.5 days
- Activity (%) 10 mg/kg po ([3]; single 10 mg/kg po in 3% ethanol and 7% Tween 80 on day 1 post-infection, percent reduction in parasitemia on day 3): 99.94%
- Survival (days) 10 mg/kg SSV po ([3]; single 10 mg/kg po in SSV, untreated 6-7 days): 10.0 days
- Activity (%) 10 mg/kg SSV po ([3]; single 10 mg/kg po in standard suspending vehicle (SSV) on day 1 post-infection, percent reduction in parasitemia on day 3): 99.96%
- Survival (days) 10 mg/kg sc ([3]; single 10 mg/kg sc in 3% ethanol and 7% Tween 80, untreated 6-7 days): 12.5 days
- Activity (%) 10 mg/kg sc ([3]; single 10 mg/kg sc in 3% ethanol and 7% Tween 80 on day 1 post-infection, percent reduction in parasitemia on day 3): 99.97%
- % reduction of adult worms growth at day 49 after per os application of 200 mg/kg, TWR (%) ([4]; single 200 mg/kg per os, 49-day-old adults, total worm reduction rate): 39%
- Adult worms day 49, per os 200 mg/kg, DEAD WORM (%) ([4]; single 200 mg/kg per os, percentage of dead worm in the liver): 34%
- % reduction of adult worms growth at day 49 after per os application of 400 mg/kg, TWR (%) ([4]; single 400 mg/kg per os, 49-day-old adults, total worm reduction rate): 16%
- Adult worms day 49, per os 400 mg/kg, DEAD WORM (%) ([4]; single 400 mg/kg per os, percentage of dead worm in the liver): 28%
- % reduction of adult worms growth at day 49 after per os application of 600 mg/kg, TWR (%) ([4]; single 600 mg/kg per os, 49-day-old adults, total worm reduction rate): 41/ %
- Adult worms day 49, per os 600 mg/kg, DEAD WORM (%) ([4]; single 600 mg/kg per os, percentage of dead worm in the liver): 21++ %
- ED50 ([5]; Plasmodium berghei, single dose po in SSV on day 1 post-infection, parasitemia day 3, nonlinear fitting, read-out: ED50): 0.55 mg/kg
- ED90 ([5]; po): 1.4 mg/kg
- ED99 ([5]; single dose po in SSV on day 1 post-infection, parasitemia day 3, nonlinear fitting): 3.0 mg/kg
- half-life ([6]; iv, 10 mg/kg): 2.5 h
- bioavailability ([6]; po, 10 mg/kg): 12.4%
- bioavailability ([6]; po, 25 mg/kg): 22.4%
- half-life ([6]; po, 25 mg/kg): 1.69 h
- half-life ([7]; IV 10 mg/kg): 3.05 h
- half-life ([7]; oral 10 mg/kg): 2.12 h
- bioavailability ([7]; oral 10 mg/kg, read-out: Dog Oral Bioavailability 10 mg/kg): 24.5%
- bioavailability ([7]; oral 25 mg/kg, read-out: Dog Oral Bioavailability 25 mg/kg): 15.9%
- Survival (days) 3 × 10 mg/kg p.o. SSV (P. berghei ANKA strain [8]; 10 mg/kg po on days 1, 2, 3 post-infection): >30 days
- Activity (%) 3 × 10 mg/kg p.o. SSV (P. berghei ANKA strain [8]; po, 10 mg/kg, 96 h): 100%
- Cures 3 × 10 mg/kg p.o. SSV (P. berghei ANKA strain [8]; po, 10 mg/kg, 720 h): 3\3
- Activity (%) 1 × 30 mg/kg p.o. SSV (P. berghei ANKA strain [8]; po, 30 mg/kg): 100%
- Cures 1 × 30 mg/kg p.o. SSV (P. berghei ANKA strain [8]; po, 30 mg/kg, 720 h): 0/5
- Survival (days) 1 × 30 mg/kg p.o. SSV (P. berghei ANKA strain [8]; single 30 mg/kg po on day 1 post-infection): >30 days
- Activity at the 3×3 mg/kg dose (P. berghei ANKA strain [9]; 3 mg/kg po (SSV) on days 1, 2, 3 post-infection, parasitemia reduction on day 4): 100%
- Survival (P. berghei ANKA strain [9]; 3 × 1 mg/kg p.o. SSV on days 1, 2, 3 post-infection): 9.4 days
- Survival (P. berghei ANKA strain [9]; 3 × 3 mg/kg p.o. SSV on days 1, 2, 3 post-infection): 16.4 days
- Activity (%) (P. berghei ANKA strain [9]; 3 × 3 mg/kg p.o. SSV on days 1, 2, 3 post-infection, percent reduction of parasitemia vs control on day 4): 100%
- Activity (%) (P. berghei ANKA strain [9]; po, 1 mg/kg, 96 h): 99.51%
- Cures (P. berghei ANKA strain [9]; po, 3 mg/kg, 720 h): 0\5
- Prophylactic Activity (%) 72 h (P. berghei ANKA strain [10]; po, 100 mg/kg): 99.92%
- Duration of prophylactic protection (P. berghei ANKA strain [10]; single 100 mg/kg po): 3 days
- Prophylactic Activity (%) 24 h (P. berghei ANKA strain [10]; single 100 mg/kg po 24 h before infection, parasitemia reduction on day 3 post-infection): 100%
- Prophylactic Activity (%) 48 h (P. berghei ANKA strain [10]; single 100 mg/kg po 48 h before infection, parasitemia reduction on day 3 post-infection): 99.9%
- Prophylactic Activity (%) 0 h (P. berghei ANKA strain [10]; single 100 mg/kg po at 0 h, parasitemia reduction on day 3 post-infection): 100%
